Laboratory results as given in ChEMBL document CHEMBL1158129, “Cyclic heptapeptides from the Jamaican sponge Stylissa caribica” (J Nat Prod, 2006).
≈ marks a conversion by molar mass, not a printed value. Calls of active or inactive are those of the source. The calls are words filed in the database; no cut-off is given here. Peptide text beside a SMILES is read from it.

Key:
[1] = system: Staphylococcus aureus; assay: Antibacterial activity against Staphylococcus aureus; type: functional, organism-based
[2] = system: Mycobacterium intracellulare; assay: Antibacterial activity against Mycobacterium intracellular; type: functional, organism-based
[3] = system: Plasmodium falciparum; assay: Antimalarial activity against Plasmodium falciparum W2; type: functional, organism-based
[4] = system: Pseudomonas aeruginosa; assay: Antibacterial activity against Pseudomonas aeruginosa; type: functional, organism-based
[5] = system: Candida albicans; assay: Antifungal activity against Candida albicans; type: functional, organism-based
[6] = system: Aspergillus fumigatus; assay: Antifungal activity against Aspergillus fumigatus; type: functional, organism-based
[7] = system: Microglia; assay: Antiinflammatory activity against rat neonatal microglia; type: functional, cell-based
[8] = system: Mycobacterium tuberculosis; assay: Antimycobacterial activity against Mycobacterium tuberculosis; type: functional, organism-based
[9] = system: Human immunodeficiency virus 1; assay: Antiviral activity against HIV1 in human PBM cells; type: functional, organism-based
[10] = system: Cryptococcus neoformans; assay: Antifungal activity against Cryptococcus neoformans; type: functional, organism-based
[11] = system: Plasmodium falciparum; assay: Antimalarial activity against Plasmodium falciparum D6; type: functional, organism-based
[12] = system: Leishmania donovani; assay: Antileishmanial activity against Leishmania donovani; type: functional, organism-based
[13] = system: Mycobacterium tuberculosis; assay: Antimycobacterial activity against Mycobacterium tuberculosis at 128 ug/mL; type: functional
[14] = system: Bel-7402; assay: Cytotoxicity against human Bel-7402; type: functional; details: read-out: ED50 (the source's name)

Compound	Activity [1]	Activity [2]	Activity [3]	Activity [4]	Activity [5]	Activity [6]	Activity [7]	Activity [8]	Activity [9]	Activity [10]	Activity [11]	Activity [12]	inhibition at 128 µg/mL [13] [%]	IC50 [11] [µg/mL]	EC50 [14] [µg/mL]	Activity [13]	IC50 [10] [µg/mL]
CC[C@H](C)[C@@H]1NC(=O)[C@@H]2CCCN2C(=O)[C@H](Cc2ccc(O)cc2)NC(=O)[C@@H]2CCCN2C(=O)[C@H](CC(C)C)NC(=O)[C@@H]2CCCN2C(=O)[C@H](Cc2ccccc2)NC1=O (cyclo(FPLPYPI))	inactive	inactive	inactive	inactive	inactive	inactive	inactive	inactive	inactive	inactive	inactive	–	–	–	–	–	–
CC[C@H](C)[C@@H]1NC(=O)[C@@H]2CCCN2C(=O)[C@H](Cc2ccccc2)NC(=O)[C@@H]2CCCN2C(=O)[C@@H]2CCCN2C(=O)[C@H](Cc2ccc(O)cc2)NC(=O)[C@@H]2CCCN2C1=O (cyclo(FPIPYPP))	inactive	inactive	inactive	inactive	inactive	inactive	inactive	inactive	inactive	inactive	inactive	–	–	–	–	–	–
Nc1ncc(/C=C/CNC(=O)c2cc(Br)c(Br)[nH]2)[nH]1 [OROIDIN]	–	–	–	–	–	–	–	–	inactive	inactive	–	inactive	71	1.2 (≈ 3.08 µM)	–	–	–
Nc1ncc(C2=CCNC(=O)c3[nH]c(Br)c(Br)c32)[nH]1 [STEVENSINE]	–	–	–	–	–	–	–	–	inactive	inactive	–	inactive	95	1.8 (≈ 4.65 µM)	–	–	–
CC(C)C[C@@H]1NC(=O)[C@H]([C@@H](C)O)NC(=O)[C@@H]2CCCN2C(=O)CNC(=O)[C@H](Cc2ccccc2)NC(=O)[C@@H]2CCCN2C(=O)[C@H](Cc2c[nH]c3ccccc23)NC1=O [PHAKELLISTATIN 13] (cyclo(FGPTLWP))	–	–	–	–	–	–	–	–	–	–	–	–	–	–	< 0.01	–	–
Nc1nc([C@H]2[C@H](CNC(=O)c3cc(Br)c[nH]3)[C@@H](CNC(=O)c3cc(Br)c[nH]3)[C@@H]2c2c[nH]c(N)n2)c[nH]1 [SCEPTRIN]	–	–	–	–	–	–	–	–	inactive	–	–	inactive	–	–	–	inactive	3.5 (≈ 5.64 µM)
